What was measured:
Assay type in all cases: binding
[1] = biological target: T1, Transketolase (TKT) (Homo sapiens, UniProt P29401); assay: SPR (Biacore, TKT immobilised on HisCap chip); supported by DARTS, CETSA, TKT-column displacement and enzyme inhibition ([…] at […]); parameters: Purified human TKT protein
T1 sequence (P29401 1-623): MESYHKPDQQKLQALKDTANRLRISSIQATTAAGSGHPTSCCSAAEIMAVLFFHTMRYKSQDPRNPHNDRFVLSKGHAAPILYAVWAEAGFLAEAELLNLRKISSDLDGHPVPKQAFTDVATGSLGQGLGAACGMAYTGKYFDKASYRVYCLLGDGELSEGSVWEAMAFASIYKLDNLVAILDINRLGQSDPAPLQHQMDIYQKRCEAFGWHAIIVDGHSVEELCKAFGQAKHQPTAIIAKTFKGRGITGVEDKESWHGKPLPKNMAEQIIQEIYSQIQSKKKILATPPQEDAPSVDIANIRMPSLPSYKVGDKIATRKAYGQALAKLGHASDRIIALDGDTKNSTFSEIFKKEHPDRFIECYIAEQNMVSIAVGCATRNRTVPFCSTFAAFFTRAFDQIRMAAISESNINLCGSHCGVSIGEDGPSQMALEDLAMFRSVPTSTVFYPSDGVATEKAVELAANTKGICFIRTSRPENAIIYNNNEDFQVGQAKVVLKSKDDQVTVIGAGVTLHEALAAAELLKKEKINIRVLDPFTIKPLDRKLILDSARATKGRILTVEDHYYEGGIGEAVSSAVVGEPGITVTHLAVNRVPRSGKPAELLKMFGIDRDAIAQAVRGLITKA

[2] = biological target: T2, p53 (Homo sapiens, UniProt P04637); assay: SPR
T2 construct: gene TP53

[3] = biological target: T1, Transketolase (TKT); assay: competitive displacement chromatography on TKT protein column; parameters: TKT protein immobilised on silica column

T2 sequence (P04637 whole entry): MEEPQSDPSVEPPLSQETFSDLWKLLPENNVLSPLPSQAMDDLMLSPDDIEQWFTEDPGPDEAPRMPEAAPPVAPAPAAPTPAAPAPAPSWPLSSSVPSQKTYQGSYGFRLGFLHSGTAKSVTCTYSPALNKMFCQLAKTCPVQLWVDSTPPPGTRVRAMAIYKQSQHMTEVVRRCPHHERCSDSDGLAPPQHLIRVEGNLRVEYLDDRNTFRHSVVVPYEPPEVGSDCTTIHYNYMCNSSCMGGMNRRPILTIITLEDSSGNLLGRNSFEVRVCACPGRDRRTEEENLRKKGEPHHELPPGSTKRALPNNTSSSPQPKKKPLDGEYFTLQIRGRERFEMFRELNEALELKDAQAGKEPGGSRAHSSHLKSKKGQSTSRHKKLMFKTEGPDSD

Row | SMILES | Kd [1] [µM] | Kd [2] [µM] | competitive displacement chromatography on TKT protein column [3]
1 | COc1c(O)cc2oc(-c3ccccc3)cc(=O)c2c1O [oroxylin A] | 11.9 ± 8.4 | 70.7 | 
2 | Cc1ncc(C[n+]2csc(CCO)c2C)c(O)n1 [oxythiamine] |  |  | retention time of oxythiamine was markedly decreased with the increased concentration of oroxylin A in mobile phase

Source: paper PMC9619225, “Novel transketolase inhibitor oroxylin A suppresses the non‐oxidative pentose phosphate pathway and hepatocellular carcinoma tumour growth in mice and patient‐derived organoids” (Clinical and Translational Medicine, 2022)
